From patent US20150344457A1, “METHODS OF INHIBITING PRMT5” (EPIZYME, INC., priority 2012, published 2015)
Where two headings read alike, the source gives them in different places.

Target: T1, PRMT5/MEP50 (Homo sapiens, UniProt O14744)
T1 construct: Expressed full-length human Flag-PRMT5/6His-MeP50 protein complex was purified; made in house; host or cells: Spodoptera frugiperda (SF9) insect cells, baculovirus (pDEST8)
Test: PRMT5 Biochemical Assay (PRMT5/MEP50 enzyme assay on peptide substrate, 3H-SAM Flashplate)
Settings: PRMT5/MEP50 4 nM, 3H-SAM 75 nM, peptide 40 nM, read-out: Biochemical IC50
Text: S-adenosylmethionine (SAM), S-adenosylhomocysteine (SAH), bicine, KCl, Tween20, dimethylsulfoxide (DMSO), bovine skin gelatin (BSG), and Tris(2-carboxyethyl)phosphine hydrochloride solution (TCEP) were purchased from Sigma-Aldrich at the highest level of purity possible. ^3H-SAM was purchase from American Radiolabeled Chemicals with a specific activity of 80 Ci/mmol 384-well streptavidin Flashplates were purchased from PerkinElmer.
Peptide representative of human histone H4 residues 1-15 was synthesized with a C-terminal linker-affinity tag motif and a C-terminal amide cap by 21st Century Biochemicals. […] The sequence was Ac-[…][K-Biot]-amide (SEQ ID NO.:3).
Full-length human MEP50 (NM_024102) clone was amplified from a human testis cDNA library incorporating a 5′ sequence encoding a 6-histidine tag (MHHHHHH) (SEQ ID NO.:5) fused directly to Arg 2 of MEP50. The amplified genes were sublconed into pENTR/D/TEV (Life Technologies) and subsequently transferred by Gateway™ attL×attR recombination to pDEST8 baculvirus expression vector (Life Technologies).
Recombinant baculovirus and Baculovirus-Infected Insect Cells (BIIC) were generated according to Bac-to-Bac kit instructions (Life Technologies) and Wasilko, 2006, respectively. Protein over-expression was accomplished by infecting exponentially growing Spodoptera frugiperda (SF9) cell culture at 1.2×10^6 cell/ml with a 5000 fold dilution of BIIC stock. Infections were carried out at 27° C. for 72 hours, harvested by centrifugation, and stored at −80° C. for purification.
Flag-PRMT5/6His-MeP50 was eluted with 300 mM Imidazole in the same buffer. […] Reference: Wasilko, D. J. and S. E. Lee: “TIPS: titerless infected-cells preservation and scale-up” Bioprocess J., 5 (2006), pp. 29-32.
General Procedure for PRMT5/MEP50 Enzyme Assays on Peptide Substrates.
The assays were all performed in a buffer consisting of 20 mM Bicine (pH=7.6), 1 mM TCEP, 0.005% BSG, and 0.002% Tween20, prepared on the day of use. Compounds in 100% DMSO (1 ul) were spotted into a polypropylene 384-well V-bottom plates (Greiner) using a Platemate Plus outfitted with a 384-channel head (Thermo Scientific). DMSO (1 ul) was added to Columns 11, 12, 23, 24, rows A-H for the maximum signal control and 1 ul of SAH, a known product and inhibitor of PRMT5/MEP50, was added to columns 11, 12, 23, 24, rows I-P for the minimum signal control. A cocktail (40 ul) containing the PRMT5/MEP50 enzyme and the peptide was added by Multidrop Combi (Thermo-Fisher). The compounds were allowed to incubate with PRMT5/MEP50 for 30 min at 25 degrees Celsius, then a cocktail (10 ul) containing ^3H-SAM was added to initiate the reaction (final volume=51 ul). The final concentrations of the components were as follows: PRMT5/MEP50 was 4 nM, ^3H-SAM was 75 nM, peptide was 40 nM, SAH in the minimum signal control wells was 100 uM, and the DMSO concentration was 1%. The assays were stopped by the addition of non-radioactive SAM (10 ul) to a final concentration of 600 uM, which dilutes the ^3H-SAM to a level where its incorporation into the peptide substrate is no longer detectable. 50 ul of the reaction in the 384-well polypropylene plate was then transferred to a 384-well Flashplate and the biotinylated peptides were allowed to bind to the streptavidin surface for at least 1 hour before being washed three times with 0.1% Tween20 in a Biotek ELx405 plate washer. The plates were then read in a PerkinElmer TopCount plate reader to measure the quantity of ^3H-labeled peptide bound to the Flashplate surface, measured as disintegrations per minute (dpm) or alternatively, referred to as counts per minute (cpm).
where dpm=disintegrations per minute, cmpd=signal in assay well, and min and max are the respective minimum and maximum signal controls.
where top and bottom are the normally allowed to float, but may be fixed at 100 or 0 respectively in a 3-parameter fit.

T1 sequence (O14744 with tags, fused parts or gaps): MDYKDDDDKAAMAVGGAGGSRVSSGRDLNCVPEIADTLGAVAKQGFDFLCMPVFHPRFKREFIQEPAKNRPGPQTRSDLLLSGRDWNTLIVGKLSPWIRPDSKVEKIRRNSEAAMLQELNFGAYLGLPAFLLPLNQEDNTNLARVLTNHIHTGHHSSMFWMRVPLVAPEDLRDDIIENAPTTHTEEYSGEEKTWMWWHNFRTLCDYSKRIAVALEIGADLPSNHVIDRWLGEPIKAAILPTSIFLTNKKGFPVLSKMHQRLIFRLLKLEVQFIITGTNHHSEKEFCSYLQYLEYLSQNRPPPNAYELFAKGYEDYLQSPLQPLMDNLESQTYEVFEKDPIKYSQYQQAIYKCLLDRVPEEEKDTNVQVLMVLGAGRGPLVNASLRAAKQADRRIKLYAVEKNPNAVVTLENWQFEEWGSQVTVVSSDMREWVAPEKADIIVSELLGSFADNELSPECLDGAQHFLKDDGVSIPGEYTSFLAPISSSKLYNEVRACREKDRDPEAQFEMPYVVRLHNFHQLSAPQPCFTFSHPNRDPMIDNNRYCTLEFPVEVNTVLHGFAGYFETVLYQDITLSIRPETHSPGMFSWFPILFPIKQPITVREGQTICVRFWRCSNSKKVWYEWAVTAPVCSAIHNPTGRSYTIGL
T1 sequence (Q9BQA1 with tags, fused parts or gaps partner limits assumed): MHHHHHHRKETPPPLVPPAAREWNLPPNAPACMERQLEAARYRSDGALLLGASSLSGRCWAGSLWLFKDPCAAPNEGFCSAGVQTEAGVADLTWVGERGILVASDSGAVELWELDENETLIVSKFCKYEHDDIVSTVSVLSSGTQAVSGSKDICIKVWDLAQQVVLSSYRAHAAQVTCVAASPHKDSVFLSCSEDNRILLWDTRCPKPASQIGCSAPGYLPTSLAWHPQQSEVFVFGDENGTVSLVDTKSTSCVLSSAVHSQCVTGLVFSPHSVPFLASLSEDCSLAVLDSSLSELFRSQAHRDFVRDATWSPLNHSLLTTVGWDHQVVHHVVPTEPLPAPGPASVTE

Row | SMILES | IC50 (Table A-2) [µM] | IC50 (Table B-2) [µM]
1 | O=C(NCC(O)CN1CCc2ccccc2C1)c1cccc(-c2ccccn2)c1 (stereo not shown) [Compound B1.] |  | < 0.1
2 | Cn1nccc1-c1cccc(C(=O)NCC(O)CN2CCc3ccccc3C2)c1 (stereo not shown) [Compound B2.] |  | < 0.1
3 | O=C(NC[C@H](O)CN1CCc2ccccc2C1)c1ccccc1 [Compound B3.] |  | < 0.1
4 | O=C(NCC(O)CN1CCc2ccccc2C1)c1cccc(-c2cccnc2)c1 (stereo not shown) [Compound B8.] |  | < 0.1
5 | O=C(NCC(O)CN1CCc2ccccc2C1)c1cccc(-c2ccncc2)c1 (stereo not shown) [Compound B9.] |  | < 0.1
6 | O=C(NCC(O)CN1CCc2ccccc2C1)c1cccc(-c2cc[nH]n2)c1 (stereo not shown) [Compound B10.] |  | < 0.1
7 | O=C(NC[C@@H](O)CN1CCc2ccccc2C1)Oc1ccccc1 [Compound B11.] |  | < 0.1
8 | O=C(NCC(O)CN1CCc2ccccc2C1)c1ccccc1-c1ccccn1 (stereo not shown) [Compound B12.] |  | 0.101 to 1
9 | O=C(NCC(O)CN1CCc2ccccc2C1)c1ccc(-c2ccccn2)cc1 (stereo not shown) [Compound B13.] |  | < 0.1
10 | O=C(NCC(O)CN1CCc2ccccc2C1)c1cccc(N2CCOCC2)c1 (stereo not shown) [Compound B14.] |  | < 0.1
11 | O=C(NCC(O)CN1CCc2ccccc2C1)c1cccc(CNC2CCOCC2)c1 (stereo not shown) [Compound B15.] |  | < 0.1
12 | O=C(NCC(O)CN1CCc2ccccc2C1)c1cccc(NC2CCOCC2)c1 (stereo not shown) [Compound B16.] |  | < 0.1
13 | O=C(NCC(O)CN1CCc2ccccc2C1)c1ccccn1 (stereo not shown) [Compound B17.] |  | 0.101 to 1
14 | O=C(NCC(O)CN1CCc2ccccc2C1)c1cccnc1 (stereo not shown) [Compound B18.] |  | 0.101 to 1
15 | O=C(NC[C@@H](O)CN1CCc2ccccc2C1)c1cccc(-c2ccccn2)c1 [Compound B19.] |  | < 0.1
16 | O=C(NC[C@H](O)CN1CCc2ccccc2C1)c1cccc(-c2ccccn2)c1 [Compound B20.] |  | < 0.1
17 | NS(=O)(=O)c1ccc(C(=O)NCC(O)CN2CCc3ccccc3C2)cc1 (stereo not shown) [Compound B21.] |  | 0.101 to 1
18 | NC(=O)c1ccc(C(=O)NCC(O)CN2CCc3ccccc3C2)cc1 (stereo not shown) [Compound B22.] |  | 0.101 to 1
19 | CC(=O)Nc1ccc(C(=O)NCC(O)CN2CCc3ccccc3C2)cc1 (stereo not shown) [Compound B23.] |  | 0.101 to 1
20 | CS(=O)(=O)Nc1cccc(C(=O)NCC(O)CN2CCc3ccccc3C2)c1 (stereo not shown) [Compound B24.] |  | < 0.1
21 | NC(=O)c1cccc(C(=O)NCC(O)CN2CCc3ccccc3C2)c1 (stereo not shown) [Compound B25.] |  | 0.101 to 1
22 | CC(=O)Nc1cccc(C(=O)NCC(O)CN2CCc3ccccc3C2)c1 (stereo not shown) [Compound B26.] |  | 0.101 to 1
23 | CS(=O)(=O)Nc1ccccc1C(=O)NCC(O)CN1CCc2ccccc2C1 (stereo not shown) [Compound B27.] |  | 1 to 10
24 | CN(C)CCOc1cccc(C(=O)NCC(O)CN2CCc3ccccc3C2)c1 (stereo not shown) [Compound B28.] |  | < 0.1

Next, values leading:

Row | IC50 (Table A-2) [µM] | IC50 (Table B-2) [µM] | SMILES
25 | 1 to 10 |  | O=C(CCc1ccccc1)NCC(O)CN1CCc2ccccc2C1 (stereo not shown) [Compound A2]
26 | 1 to 10 |  | CN(CC(O)CN1CCc2ccccc2C1)C(=O)CCc1ccccc1 (stereo not shown) [Compound A3]
27 | < 0.1 |  | O=C(COc1cccc2c1CCCN2Cc1ccccc1)NCC(O)CN1CCc2ccccc2C1 (stereo not shown) [Compound A4]
28 | 10 to 50 |  | CN(CC(O)CN1CCc2ccccc2C1)C(=O)COc1ccccc1 (stereo not shown) [Compound A5]
29 | 1 to 10 |  | O=C(COc1ccc(F)cc1)NCC(O)CN1CCc2ccccc2C1 (stereo not shown) [Compound A10]
30 | 1 to 10 |  | NC(=O)c1ccc(OCC(=O)NCC(O)CN2CCc3ccccc3C2)cc1 (stereo not shown) [Compound A13]
31 | 1 to 10 |  | CS(=O)(=O)c1ccc(OCC(=O)NCC(O)CN2CCc3ccccc3C2)cc1 (stereo not shown) [Compound A14]
32 | 0.101 to 1 |  | O=C(COC1CCCCC1)NCC(O)CN1CCc2ccccc2C1 (stereo not shown) [Compound A24]
33 | 0.101 to 1 |  | CC(C)(Oc1ccccc1)C(=O)NCC(O)CN1CCc2ccccc2C1 (stereo not shown) [Compound A25]
34 | 1 to 10 |  | O=C(COc1ccccc1)NC[C@@H](O)CN1CCc2ccccc2C1 [Compound A33]
35 | 1 to 10 |  | O=C(COC1CCOCC1)NCC(O)CN1CCc2ccccc2C1 (stereo not shown) [Compound A41]
36 | 10 to 50 |  | O=C(Cc1ccncc1)NCC(O)CN1CCc2ccccc2C1 (stereo not shown) [Compound A51]
37 | 1 to 10 |  | NS(=O)(=O)c1ccc(OCC(=O)NCC(O)CN2CCc3ccccc3C2)cc1 (stereo not shown) [Compound A52]
38 | 0.101 to 1 |  | O=C(Cc1ccccc1)NC[C@H](O)CN1CCc2ccccc2C1 [Compound A55]
39 | 1 to 10 |  | O=C(CC1CCCCC1)NC[C@H](O)CN1CCc2ccccc2C1 [Compound A56]
40 | 10 to 50 |  | O=C(Cc1ccccc1)NC[C@@H](O)CN1CCc2ccccc2C1 [Compound A57]
41 | 10 to 50 |  | O=C(CC1CCCCC1)NC[C@@H](O)CN1CCc2ccccc2C1 [Compound A58]
42 | 1 to 10 |  | C[C@H](Oc1cccc2cccnc12)C(=O)NC[C@@H](O)CN1CCc2ccccc2C1 [Compound A72]
43 | 1 to 10 |  | O=C(COc1ccccc1OCCN1CCOCC1)NC[C@@H](O)CN1CCc2ccccc2C1 [Compound A87]
44 | 10 to 50 |  | O=C(COc1ccccc1-c1c[nH]cn1)NCC(O)CN1CCc2ccccc2C1 (stereo not shown) [Compound A115]

Row | IC50 (Table A-2) [µM] | IC50 (Table B-2) [µM] | SMILES
45 | 1 to 10 |  | O=C(COc1cccc(NC2CCOCC2)n1)NCC(O)CN1CCc2ccccc2C1 (stereo not shown) [Compound A121]
46 | 1 to 10 |  | O=C(COc1cccc2[nH]c(=O)cnc12)NCC(O)CN1CCc2ccccc2C1 (stereo not shown) [Compound A125]
47 | > 50 |  | CC(Oc1ccccc1S(N)(=O)=O)C(=O)NCC(O)CN1CCc2ccccc2C1 (stereo not shown) [Compound A126]
48 | > 50 |  | CC(=O)Nc1cccnc1OCC(=O)NCC(O)CN1CCc2ccccc2C1 (stereo not shown) [Compound A128]
49 | 1 to 10 |  | NS(=O)(=O)c1cccc(OCC(=O)NCC(O)CN2CCc3ccccc3C2)c1 (stereo not shown) [Compound A131]
50 | 1 to 10 |  | O=C(COc1ccccc1C1CNC1)NCC(O)CN1CCc2ccccc2C1 (stereo not shown) [Compound A132]
51 | > 10 |  | CN(C)c1cccnc1OCC(=O)NCC(O)CN1CCc2ccccc2C1 (stereo not shown) [Compound A133]
52 | 1 to 10 |  | CN1CC(c2ccccc2OCC(=O)NCC(O)CN2CCc3ccccc3C2)C1 (stereo not shown) [Compound A135]
53 | 1 to 10 |  | CN1CCC(c2ccccc2OCC(=O)NCC(O)CN2CCc3ccccc3C2)C1 (stereo not shown) [Compound A136]
54 | > 10 |  | CS(=O)(=O)Nc1ncccc1OCC(=O)NCC(O)CN1CCc2ccccc2C1 (stereo not shown) [Compound A139]
55 | 1 to 10 |  | CS(=O)(=O)Nc1cccnc1OCC(=O)NCC(O)CN1CCc2ccccc2C1 (stereo not shown) [Compound A140]
56 | 1 to 10 |  | CC(C)(C)OC(=O)Nc1ccccc1OCC(=O)NCC(O)CN1CCc2ccccc2C1 (stereo not shown) [Compound A141]
57 | 1 to 10 |  | CN(C)c1cncc(OCC(=O)NCC(O)CN2CCc3ccccc3C2)c1 (stereo not shown) [Compound A143]
58 | > 10 |  | O=C(COc1cccc2cccnc12)NCC(O)CN1Cc2ccccc2C(F)(F)C1 (stereo not shown) [Compound A144]
59 | 1 to 10 |  | Nc1ncccc1OCC(=O)NCC(O)CN1CCc2ccccc2C1 (stereo not shown) [Compound A145]
60 | > 10 |  | CC(=O)Nc1ncccc1OCC(=O)NCC(O)CN1CCc2ccccc2C1 (stereo not shown) [Compound A147]
61 | > 10 |  | CC(=O)Nc1cncc(OCC(=O)NCC(O)CN2CCc3ccccc3C2)c1 (stereo not shown) [Compound A148]
62 | 0.101 to 1 |  | O=C(COc1cccc2c1CCCN2)NCC(O)CN1CCc2ccccc2C1 (stereo not shown) [Compound A150]
63 | 0.101 to 1 |  | CN1CCCc2c(OCC(=O)NCC(O)CN3CCc4ccccc4C3)cccc21 (stereo not shown) [Compound A151]
64 | 1 to 10 |  | O=C(COCc1cccnc1)NCC(O)CN1CCc2ccccc2C1 (stereo not shown) [Compound A152]
